Results from patent US11884708B2, “Stapled peptide inhibitors of nemo as potential anti-inflammatory and anti-cancer drugs” (INSTITUT PASTEUR, priority 2015, dated 2024).

Columns and labels:
[1] = system: OCI-Ly3 (ABC-DLBCL, MALT1 dependent); assay: Cell death assay (CellTiter-Blue resazurin); type: cell-based, human; settings: OCI-Ly3, 7 h
Experimental: The CellTiter-Blue® Cell Viability kit assay purchased from Promega was used to assess the cell death induced by NEMO stapled peptides in ABC- and GCB-DLBCL cell lines. […] Cells were considered 100% death when the fluorescence intensity value was the same as the one with the medium alone or with the cells treated with the cycloheximide protein synthesis inhibitor at 25 μM (Sigma Aldrich).
For each time point measurement 100 μl of cell samples were withdrawn at different incubation times (7 h, 24 h and 48 h) and subjected to resazurin assay for one hour at 37° C. in the CO2 incubator by adding and mixing for 10 sec 20 μl of resazurin. Fluorescence measurements were performed with a TECAN infinite F500 instrument at 560 nm excitation wavelength and 590 nm emission wavelength. Viability of cells at time 0 was determined just before adding compound and all experiments were performed in duplicate.
The percentage of cell death was calculated according to the following formula: (1−((RFUobs−blank)/(RFU100% viability−blank))*100), where RFUobs corresponds to the cells viability observed in the presence of compound, RFU100% viability, the initial cells viability and blank the background fluorescence measured using the medium alone.
The EC50 value was calculated by plotting the percentage of cell death as function of the compound concentration and fitting the experimental curve with the following formula: (A*P0)/(EC50+P0), where A is the amplitude of fluorescence, P0 is the peptide concentration.
To compare the inhibition efficiency of BA-UBI-SAHND306-Q313 with IKK inhibitors (MLN120B, MedChem Express) or IKKα/β inhibitor (TPCA1, R&D systems), 25,000 DLBCL cells (OCI-Ly3) were incubated for 7 h with an increasing concentration of IKK inhibitors ranging from 0 to 50 μM, and the amount of cell death was then determined using CellTiter-Blue® Cell Viability kit assay. For the MI-2 MALT1 inhibitor (Fontan et al., 2012, Cancer cell 22, 812-824), similar experiments were carried out in MALT dependent (OCI-Ly3) and independent (HLY1) DLBCL cells using a 0-25 μM range.

[2] = target: T1, IKKα (Homo sapiens, UniProt O15111); settings: reported; cited from earlier work
T1 sequence (O15111 1-745): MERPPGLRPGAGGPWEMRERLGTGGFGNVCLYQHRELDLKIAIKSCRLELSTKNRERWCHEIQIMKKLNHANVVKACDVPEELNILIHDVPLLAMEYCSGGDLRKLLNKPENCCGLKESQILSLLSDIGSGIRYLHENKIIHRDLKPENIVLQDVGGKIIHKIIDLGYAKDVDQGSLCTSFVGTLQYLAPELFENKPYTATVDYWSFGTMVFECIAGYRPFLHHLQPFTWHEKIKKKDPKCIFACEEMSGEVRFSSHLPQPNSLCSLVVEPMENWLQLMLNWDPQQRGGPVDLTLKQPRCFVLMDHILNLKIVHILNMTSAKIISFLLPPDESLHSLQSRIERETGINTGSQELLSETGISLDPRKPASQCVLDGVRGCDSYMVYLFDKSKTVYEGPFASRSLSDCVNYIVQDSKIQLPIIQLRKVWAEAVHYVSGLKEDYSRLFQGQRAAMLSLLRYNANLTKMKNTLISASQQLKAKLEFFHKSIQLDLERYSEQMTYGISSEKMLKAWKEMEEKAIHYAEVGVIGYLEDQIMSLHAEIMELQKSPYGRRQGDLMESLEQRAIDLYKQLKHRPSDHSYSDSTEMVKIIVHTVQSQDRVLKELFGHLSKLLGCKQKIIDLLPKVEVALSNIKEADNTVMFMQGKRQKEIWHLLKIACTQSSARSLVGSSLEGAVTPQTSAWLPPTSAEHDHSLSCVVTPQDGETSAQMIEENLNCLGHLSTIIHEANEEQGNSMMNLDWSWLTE

For `NC(=O)Nc1sc(-c2ccc(F)cc2)cc1C(N)=O` [TPCA-1], the cell death [1] is listed as “no significant additional effect” and the IC50 [2] is listed as 400 nM.
